Columns and labels:
CD44 = CD44 gene expression by RT-PCR in normal human epidermal keratinocytes incubated with actives; type: cell-based; settings: NHEK, 24 hours, 0.05 wt % of LCC in medium
Protocol: (§1) The normal human epidermal keratinocytes (NHEK) (Biocell, Xi'an, China) were incubated in medium together with or without actives for 24 hours. After incubation, the total RNA for each NHEK was extracted using RNAiso Plus (TaKaRa, Cat: 9108; Cat: RR036) according to manufacturer's protocol.
(§2) The extracted RNA was quantified using Nanodrop spectrometer (Thermo Fisher Scientific, Waltham, MA, US) and reverse transcribed to generate the template cDNA using the PrimeScript II 1st Strand cDNA synthesis kit according to manufacturer's protocol. Amplification of the gene encoding the hyaluronan synthase 3 (HAS3) and CD44 was performed with RT-PCR reagent (SYBR® Premix Ex Taq™) on the ABI Vii 7 Real-Time PCR Systems (Applied Biosystems, Thermo fisher scientific, Carlsbad, CA, USA). The beta-actin gene was selected as the housekeeping gene and all data on relative expression of the target genes was normalized to beta-actin. The fold changes in expression were calculated relative to the blank control (medium having no active).

[1] = tested on: hyaluronan synthase 3 (HAS3); assay: HAS3 gene expression by RT-PCR in normal human epidermal keratinocytes incubated with actives; type: cell-based; settings: NHEK, 24 hours, 0.05 wt % of LCC in medium
Protocol: as §1, §2

For Lysine carboxymethyl cysteinate [LCC], the “CD44 expression (fold change relative to blank control, normalized to beta-actin)” value (CD44) was 1.06 and the “HAS3 expression (fold change relative to blank control, normalized to beta-actin)” value [1] was 0.84.

Source: patent US20250032400A1, “PERSONAL CARE COMPOSITION” (Conopco, Inc., d/b/a UNILEVER, priority 2021, published 2025)
